{"source": "patent US10131652B2", "about": "“Pyrimidinyloxy benzene derivatives as herbicides” (E. I. DU PONT DE NEMOURS AND COMPANY, priority 2014, dated 2018)", "test_in_all_cases": "Test B pre-/postemergence plant response", "type_in_all_cases": "in vivo", "key": {"[1]": {"system": "barnyardgrass (Echinochloa crus-galli)", "details": "Echinochloa crus-galli, 240 h, read-out: Plant response rating, Barnyardgrass; for pest or weed control at 125 g/ha: 125 g ai/ha; for pest or weed control at 500 g/ha: 500 g ai/ha", "in_short": "(§1)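 Visual injury rating, 0 (no effect) to 100 (complete control), vs untreated controls after ~10 d greenhouse. Pre: directed soil spray after planting in loam/sand. Post: plants 2–10 cm, 1–2 leaf stage. Compound in non-phytotoxic solvent plus surfactant.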"}, "[2]": {"system": "pigweed (Amaranthus retroflexus)", "details": "Amaranthus retroflexus, 240 h, read-out: Plant response rating, Pigweed; for pest or weed control at 125 g/ha: 125 g ai/ha; for pest or weed control at 500 g/ha: 500 g ai/ha", "in_short": "as §1"}, "[3]": {"system": "corn (Zea mays)", "details": "Zea mays, 240 h; for Corn plant response rating (crop injury, 0 = no effect, 100 = complete kill) at 125 g/ha: 125 g ai/ha; for Corn plant response rating (crop injury, 0 = no effect, 100 = complete kill) at 500 g/ha: 500 g ai/ha", "in_short": "as §1"}, "[4]": {"system": "giant foxtail (Setaria faberii)", "details": "Setaria faberi, 240 h, read-out: Plant response rating, Foxtail, Giant; for pest or weed control at 125 g/ha: 125 g ai/ha; for pest or weed control at 500 g/ha: 500 g ai/ha", "in_short": "as §1"}, "[5]": {"system": "wheat (Triticum aestivum)", "details": "Triticum aestivum, 240 h, read-out: Plant response rating, Wheat; for plant injury at 125 g/ha: 125 g ai/ha; for plant injury at 500 g/ha: 500 g ai/ha", "in_short": "as §1"}, "[6]": {"details": "post-emergence, postemergence, 0 to 100 scale, 0 no effect, 100 complete control"}, "[7]": {"details": "post-emergence, Postemergence, 0 to 100 scale (0 no effect, 100 complete control)"}, "[8]": {"details": "pre-emergence, Preemergence, 0 to 100 scale where 0 is no effect and 100 is complete control"}}, "note": "Read-outs that look alike come from different tables or passages of the source.", "data": [{"smiles": "FC(F)(F)c1ccc(-c2ccccc2Oc2ncc(Cl)cn2)nc1", "note": "[Compound 27, 5-chloro-2-[2-[5-(trifluoromethyl)-2-pyridinyl]phenoxy]pyrimidine]", "values": [{"measurement": "pest or weed control at 125 g/ha", "setting": "[1]; [6]", "value": 20, "unit": "%"}, {"measurement": "pest or weed control at 500 g/ha", "setting": "[1]; [7]", "value": 50, "unit": "%"}, {"measurement": "pest or weed control at 125 g/ha", "setting": "[1]; [8]", "value": 10, "unit": "%"}, {"measurement": "pest or weed control at 500 g/ha", "setting": "[1]; [8]", "value": 80, "unit": "%"}, {"measurement": "pest or weed control at 125 g/ha", "setting": "[2]; [6]", "value": 50, "unit": "%"}, {"measurement": "pest or weed control at 500 g/ha", "setting": "[2]; [7]", "value": 100, "unit": "%"}, {"measurement": "pest or weed control at 125 g/ha", "setting": "[2]; [8]", "value": 80, "unit": "%"}, {"measurement": "pest or weed control at 500 g/ha", "setting": "[2]; [8]", "value": 100, "unit": "%"}, {"measurement": "Corn plant response rating (crop injury, 0 = no effect, 100 = complete kill) at 125 g/ha", "setting": "[3]; [6]", "value": 0, "unit": "%"}, {"measurement": "Corn plant response rating (crop injury, 0 = no effect, 100 = complete kill) at 500 g/ha", "setting": "[3]; [7]", "value": 30, "unit": "%"}, {"measurement": "Corn plant response rating (crop injury, 0 = no effect, 100 = complete kill) at 125 g/ha", "setting": "[3]; [8]", "value": 0, "unit": "%"}, {"measurement": "Corn plant response rating (crop injury, 0 = no effect, 100 = complete kill) at 500 g/ha", "setting": "[3]; [8]", "value": 0, "unit": "%"}, {"measurement": "pest or weed control at 125 g/ha", "setting": "[4]; [6]", "value": 20, "unit": "%"}, {"measurement": "pest or weed control at 500 g/ha", "setting": "[4]; [7]", "value": 70, "unit": "%"}, {"measurement": "pest or weed control at 125 g/ha", "setting": "[4]; [8]", "value": 60, "unit": "%"}, {"measurement": "pest or weed control at 500 g/ha", "setting": "[4]; [8]", "value": 90, "unit": "%"}, {"measurement": "plant injury at 125 g/ha", "setting": "[5]; [6]", "value": 0, "unit": "%"}, {"measurement": "plant injury at 500 g/ha", "setting": "[5]; [7]", "value": 0, "unit": "%"}, {"measurement": "plant injury at 125 g/ha", "setting": "[5]; [8]", "value": 0, "unit": "%"}, {"measurement": "plant injury at 500 g/ha", "setting": "[5]; [8]", "value": 0, "unit": "%"}]}]}
